Source: BigSolDB 2.1

Compound: O=S(=O)(c1ccccc1)N(F)S(=O)(=O)c1ccccc1
- solubility (mole fraction) (in 2-butanone, 273.35 K): 0.0332
- solubility (mole fraction) (in 2-butanone, 278.35 K): 0.0396
- solubility (mole fraction) (in 2-butanone, 283.35 K): 0.047
- solubility (mole fraction) (in 2-butanone, 288.35 K): 0.0546
- solubility (mole fraction) (in 2-butanone, 292.85 K): 0.0637
- solubility (mole fraction) (in 2-butanone, 297.95 K): 0.0734
- solubility (mole fraction) (in 2-butanone, 302.65 K): 0.0852
- solubility (mole fraction) (in 2-butanone, 307.35 K): 0.0978
- solubility (mole fraction) (in 2-butanone, 312.55 K): 0.111
- solubility (mole fraction) (in 2-butanone, 316.95 K): 0.128
- solubility (mole fraction) (in 2-butanone, 322.85 K): 0.146
- solubility (mole fraction) (in 2-pentanone, 273.35 K): 0.0316
- solubility (mole fraction) (in 2-pentanone, 278.35 K): 0.038
- solubility (mole fraction) (in 2-pentanone, 283.35 K): 0.0455
- solubility (mole fraction) (in 2-pentanone, 288.35 K): 0.0534
- solubility (mole fraction) (in 2-pentanone, 292.85 K): 0.0628
- solubility (mole fraction) (in 2-pentanone, 297.95 K): 0.073
- solubility (mole fraction) (in 2-pentanone, 302.65 K): 0.0853
- solubility (mole fraction) (in 2-pentanone, 307.35 K): 0.0988
- solubility (mole fraction) (in 2-pentanone, 312.55 K): 0.113
- solubility (mole fraction) (in 2-pentanone, 316.95 K): 0.131
- solubility (mole fraction) (in 2-pentanone, 322.85 K): 0.151
- solubility (mole fraction) (in acetone, 273.35 K): 0.0309
- solubility (mole fraction) (in acetone, 278.35 K): 0.0376
- solubility (mole fraction) (in acetone, 283.35 K): 0.0455
- solubility (mole fraction) (in acetone, 288.35 K): 0.0539
- solubility (mole fraction) (in acetone, 292.85 K): 0.0639
- solubility (mole fraction) (in acetone, 297.95 K): 0.0749
- solubility (mole fraction) (in acetone, 302.65 K): 0.0885
- solubility (mole fraction) (in acetone, 307.35 K): 0.104
- solubility (mole fraction) (in acetone, 312.55 K): 0.119
- solubility (mole fraction) (in acetone, 316.95 K): 0.14
- solubility (mole fraction) (in acetone, 322.85 K): 0.162
- solubility (mole fraction) (in acetonitrile, 273.35 K): 0.00951
- solubility (mole fraction) (in acetonitrile, 278.35 K): 0.0126
- solubility (mole fraction) (in acetonitrile, 283.35 K): 0.0165
- solubility (mole fraction) (in acetonitrile, 288.35 K): 0.021
- solubility (mole fraction) (in acetonitrile, 292.85 K): 0.0267
- solubility (mole fraction) (in acetonitrile, 297.95 K): 0.0334
- solubility (mole fraction) (in acetonitrile, 302.65 K): 0.0422
- solubility (mole fraction) (in acetonitrile, 307.35 K): 0.0528
- solubility (mole fraction) (in acetonitrile, 312.55 K): 0.0645
- solubility (mole fraction) (in acetonitrile, 316.95 K): 0.0804
- solubility (mole fraction) (in acetonitrile, 322.85 K): 0.0996
- solubility (mole fraction) (in ethanol, 273.35 K): 0.000599
- solubility (mole fraction) (in ethanol, 278.35 K): 0.000791
- solubility (mole fraction) (in ethanol, 283.35 K): 0.00103
- solubility (mole fraction) (in ethanol, 288.35 K): 0.00134
- solubility (mole fraction) (in ethanol, 292.85 K): 0.00168
- solubility (mole fraction) (in ethanol, 297.95 K): 0.00214
- solubility (mole fraction) (in ethanol, 302.65 K): 0.00268
- solubility (mole fraction) (in ethanol, 307.35 K): 0.00331
- solubility (mole fraction) (in ethanol, 312.55 K): 0.00417
- solubility (mole fraction) (in ethanol, 316.95 K): 0.00503
- solubility (mole fraction) (in ethanol, 322.85 K): 0.00641
- solubility (mole fraction) (in ethyl acetate, 273.35 K): 0.0243
- solubility (mole fraction) (in ethyl acetate, 278.35 K): 0.0295
- solubility (mole fraction) (in ethyl acetate, 283.35 K): 0.0353
- solubility (mole fraction) (in ethyl acetate, 288.35 K): 0.0415
- solubility (mole fraction) (in ethyl acetate, 292.85 K): 0.0489
- solubility (mole fraction) (in ethyl acetate, 297.95 K): 0.0568
- solubility (mole fraction) (in ethyl acetate, 302.65 K): 0.0668
- solubility (mole fraction) (in ethyl acetate, 307.35 K): 0.0775
- solubility (mole fraction) (in ethyl acetate, 312.55 K): 0.0885
- solubility (mole fraction) (in ethyl acetate, 316.95 K): 0.103
- solubility (mole fraction) (in ethyl acetate, 322.85 K): 0.119
- solubility (mole fraction) (in ethyl formate, 273.35 K): 0.0206
- solubility (mole fraction) (in ethyl formate, 278.35 K): 0.0254
- solubility (mole fraction) (in ethyl formate, 283.35 K): 0.0309
- solubility (mole fraction) (in ethyl formate, 288.35 K): 0.0369
- solubility (mole fraction) (in ethyl formate, 292.85 K): 0.0441
- solubility (mole fraction) (in ethyl formate, 297.95 K): 0.052
- solubility (mole fraction) (in ethyl formate, 302.65 K): 0.0619
- solubility (mole fraction) (in ethyl formate, 307.35 K): 0.0728
- solubility (mole fraction) (in ethyl formate, 312.55 K): 0.0843
- solubility (mole fraction) (in ethyl formate, 316.95 K): 0.0992
- solubility (mole fraction) (in ethyl formate, 322.85 K): 0.116
- solubility (mole fraction) (in isobutanol, 273.35 K): 0.000182
- solubility (mole fraction) (in isobutanol, 278.35 K): 0.000265
- solubility (mole fraction) (in isobutanol, 283.35 K): 0.000382
- solubility (mole fraction) (in isobutanol, 288.35 K): 0.000545
- solubility (mole fraction) (in isobutanol, 292.85 K): 0.000744
- solubility (mole fraction) (in isobutanol, 297.95 K): 0.00104
- solubility (mole fraction) (in isobutanol, 302.65 K): 0.00141
- solubility (mole fraction) (in isobutanol, 307.35 K): 0.00188
- solubility (mole fraction) (in isobutanol, 312.55 K): 0.00258
- solubility (mole fraction) (in isobutanol, 316.95 K): 0.00332
- solubility (mole fraction) (in isobutanol, 322.85 K): 0.00467
- solubility (mole fraction) (in isopentanol, 273.35 K): 0.000312
- solubility (mole fraction) (in isopentanol, 278.35 K): 0.000432
- solubility (mole fraction) (in isopentanol, 283.35 K): 0.000594
- solubility (mole fraction) (in isopentanol, 288.35 K): 0.000812
- solubility (mole fraction) (in isopentanol, 292.85 K): 0.00106
- solubility (mole fraction) (in isopentanol, 297.95 K): 0.00142
- solubility (mole fraction) (in isopentanol, 302.65 K): 0.00184
- solubility (mole fraction) (in isopentanol, 307.35 K): 0.00238
- solubility (mole fraction) (in isopentanol, 312.55 K): 0.00312
- solubility (mole fraction) (in isopentanol, 316.95 K): 0.00389
- solubility (mole fraction) (in isopentanol, 322.85 K): 0.00519
- solubility (mole fraction) (in isopropanol, 273.35 K): 0.000584
- solubility (mole fraction) (in isopropanol, 278.35 K): 0.000798
- solubility (mole fraction) (in isopropanol, 283.35 K): 0.000929
- solubility (mole fraction) (in isopropanol, 288.35 K): 0.00121
- solubility (mole fraction) (in isopropanol, 292.85 K): 0.0015
- solubility (mole fraction) (in isopropanol, 297.95 K): 0.00186
- solubility (mole fraction) (in isopropanol, 302.65 K): 0.00226
- solubility (mole fraction) (in isopropanol, 307.35 K): 0.00275
- solubility (mole fraction) (in isopropanol, 312.55 K): 0.00346
- solubility (mole fraction) (in isopropanol, 316.95 K): 0.0041
- solubility (mole fraction) (in isopropanol, 322.85 K): 0.00495
- solubility (mole fraction) (in methanol, 273.35 K): 0.000611
- solubility (mole fraction) (in methanol, 278.35 K): 0.000792
- solubility (mole fraction) (in methanol, 283.35 K): 0.00102
- solubility (mole fraction) (in methanol, 288.35 K): 0.0013
- solubility (mole fraction) (in methanol, 292.85 K): 0.0016
- solubility (mole fraction) (in methanol, 297.95 K): 0.00201
- solubility (mole fraction) (in methanol, 302.65 K): 0.00248
- solubility (mole fraction) (in methanol, 307.35 K): 0.00302
- solubility (mole fraction) (in methanol, 312.55 K): 0.00374
- solubility (mole fraction) (in methanol, 316.95 K): 0.00445
- solubility (mole fraction) (in methanol, 322.85 K): 0.0056
- solubility (mole fraction) (in methyl acetate, 273.35 K): 0.0285
- solubility (mole fraction) (in methyl acetate, 278.35 K): 0.0346
- solubility (mole fraction) (in methyl acetate, 283.35 K): 0.0417
- solubility (mole fraction) (in methyl acetate, 288.35 K): 0.0492
- solubility (mole fraction) (in methyl acetate, 292.85 K): 0.0583
- solubility (mole fraction) (in methyl acetate, 297.95 K): 0.0681
- solubility (mole fraction) (in methyl acetate, 302.65 K): 0.0803
- solubility (mole fraction) (in methyl acetate, 307.35 K): 0.0934
- solubility (mole fraction) (in methyl acetate, 312.55 K): 0.107
- solubility (mole fraction) (in methyl acetate, 316.95 K): 0.126
- solubility (mole fraction) (in methyl acetate, 322.85 K): 0.145
- solubility (mole fraction) (in n-butanol, 273.35 K): 0.00053
- solubility (mole fraction) (in n-butanol, 278.35 K): 0.000696
- solubility (mole fraction) (in n-butanol, 283.35 K): 0.000909
- solubility (mole fraction) (in n-butanol, 288.35 K): 0.00117
- solubility (mole fraction) (in n-butanol, 292.85 K): 0.00147
- solubility (mole fraction) (in n-butanol, 297.95 K): 0.00187
- solubility (mole fraction) (in n-butanol, 302.65 K): 0.00233
- solubility (mole fraction) (in n-butanol, 307.35 K): 0.00287
- solubility (mole fraction) (in n-butanol, 312.55 K): 0.0036
- solubility (mole fraction) (in n-butanol, 316.95 K): 0.00433
- solubility (mole fraction) (in n-butanol, 322.85 K): 0.00551
- solubility (mole fraction) (in n-pentanol, 273.35 K): 0.000465
- solubility (mole fraction) (in n-pentanol, 278.35 K): 0.000632
- solubility (mole fraction) (in n-pentanol, 283.35 K): 0.000843
- solubility (mole fraction) (in n-pentanol, 288.35 K): 0.00112
- solubility (mole fraction) (in n-pentanol, 292.85 K): 0.00142
- solubility (mole fraction) (in n-pentanol, 297.95 K): 0.00186
- solubility (mole fraction) (in n-pentanol, 302.65 K): 0.00236
- solubility (mole fraction) (in n-pentanol, 307.35 K): 0.00298
- solubility (mole fraction) (in n-pentanol, 312.55 K): 0.00382
- solubility (mole fraction) (in n-pentanol, 316.95 K): 0.0047
- solubility (mole fraction) (in n-pentanol, 322.85 K): 0.00613
- solubility (mole fraction) (in n-propanol, 273.35 K): 0.000452
- solubility (mole fraction) (in n-propanol, 278.35 K): 0.000616
- solubility (mole fraction) (in n-propanol, 283.35 K): 0.000832
- solubility (mole fraction) (in n-propanol, 288.35 K): 0.00111
- solubility (mole fraction) (in n-propanol, 292.85 K): 0.00142
- solubility (mole fraction) (in n-propanol, 297.95 K): 0.00187
- solubility (mole fraction) (in n-propanol, 302.65 K): 0.00239
- solubility (mole fraction) (in n-propanol, 307.35 K): 0.00304
- solubility (mole fraction) (in n-propanol, 312.55 K): 0.00392
- solubility (mole fraction) (in n-propanol, 316.95 K): 0.00485
- solubility (mole fraction) (in n-propanol, 322.85 K): 0.00633
- solubility (mole fraction) (in toluene, 273.35 K): 0.0112
- solubility (mole fraction) (in toluene, 278.35 K): 0.0145
- solubility (mole fraction) (in toluene, 283.35 K): 0.0185
- solubility (mole fraction) (in toluene, 288.35 K): 0.0228
- solubility (mole fraction) (in toluene, 292.85 K): 0.0284
- solubility (mole fraction) (in toluene, 297.95 K): 0.0346
- solubility (mole fraction) (in toluene, 302.65 K): 0.0429
- solubility (mole fraction) (in toluene, 307.35 K): 0.052
- solubility (mole fraction) (in toluene, 312.55 K): 0.0623
- solubility (mole fraction) (in toluene, 316.95 K): 0.076
- solubility (mole fraction) (in toluene, 322.85 K): 0.092
